Reference: ChEMBL document CHEMBL3045906, “LCMS/MS method for simultaneous analysis of cladrin and equol in rat plasma and its application in pharmacokinetics study of cladrin” (Med Chem Res, 2011)

Assays:
Plasma = test: Drug recovery in Rattus norvegicus (rat) plasma at 50 ng/ml by LLE method; type: ADME, cell-free
[1] = Stability of the compound in Rattus norvegicus (rat) plasma at 7.8 ng/ml after three 24 hr cycles of freeze-thaw on storing at -80 degC; type: ADME, cell-free; conditions: read-out: Stability
[2] = Stability of the compound in Rattus norvegicus (rat) plasma at 62.5 ng/ml after three 24 hr cycles of freeze-thaw on storing at -80 degC; type: ADME, cell-free; conditions: read-out: Stability
[3] = Stability of the compound in Rattus norvegicus (rat) plasma at 1000 ng/ml after three 24 hr cycles of freeze-thaw on storing at -80 degC; type: ADME, cell-free; conditions: read-out: Stability
[4] = Stability of the compound in Rattus norvegicus (rat) plasma at 7.8 ng/ml after 2 months at -80 degC; type: ADME, cell-free; conditions: read-out: Stability
[5] = Stability of the compound in Rattus norvegicus (rat) plasma at 62.5 ng/ml after 2 months at -80 degC; type: ADME, cell-free; conditions: read-out: Stability
[6] = Stability of the compound in Rattus norvegicus (rat) plasma at 1000 ng/ml after 2 months at -80 degC; type: ADME, cell-free; conditions: read-out: Stability
[7] = Tmax in Rattus norvegicus Sprague-Dawley (rat) at 10 mg/kg, po; type: ADME, organism-based; design: dose 10 mg/kg, route oral; conditions: in vivo
[8] = Half life in Rattus norvegicus Sprague-Dawley (rat) at 10 mg/kg, po; type: ADME, organism-based; design: dose 10 mg/kg, route oral; conditions: in vivo
[9] = Cmax in Rattus norvegicus Sprague-Dawley (rat) at 10 mg/kg, po; type: ADME, organism-based; design: dose 10 mg/kg, route oral; conditions: in vivo
[10] = AUC (0 to alpha) in Rattus norvegicus Sprague-Dawley (rat) at 10 mg/kg, po; type: ADME, organism-based; design: dose 10 mg/kg, route oral; conditions: plasma
[11] = Mean residence time in Rattus norvegicus Sprague-Dawley (rat) at 10 mg/kg, po; type: ADME, organism-based; design: dose 10 mg/kg, route oral; conditions: in vivo

Row | Drug recovery (Plasma) [%] | remaining at 24 h, 7.8 ng/ml [1] [%] | remaining at 24 h, 62.5 ng/ml [2] [%] | remaining at 24 h, 1000 ng/ml [3] [%] | remaining at 1461 h, 7.8 ng/ml [4] [%] | remaining at 1461 h, 62.5 ng/ml [5] [%] | remaining at 1461 h, 1000 ng/ml [6] [%] | Tmax [7] [h] | half-life [8] [h] | Cmax [9] [ng/mL] | AUC [10] [ng·h/mL] | MRT [11] [h] | SMILES
1 | 85.3 | – | – | – | – | – | – | – | – | – | – | – | O=c1c(-c2ccccc2)coc2cc(O)ccc12 [7-HYDROXY ISOFLAVONE]
2 | 76.5 | 93.9 | 94.6 | 91.8 | 100 | 103 | 95.6 | – | – | – | – | – | Oc1ccc([C@H]2COc3cc(O)ccc3C2)cc1 [AUS-131]
3 | 83.5 | 93.6 | 98.5 | 88.2 | 106 | 84.5 | 81.4 | 0.5 | 4.1 | 44.8 | 609 | 10.8 | COc1ccc(-c2coc3cc(O)ccc3c2=O)cc1OC [CLADRIN]
